In ChEMBL document CHEMBL3414453, “Design and optimization of hybrid of 2,4-diaminopyrimidine and arylthiazole scaffold as anticancer cell proliferation and migration agents” (Eur J Med Chem, 2015):

Key:
MCF7 = assay: Cytotoxicity against human MCF7 cells assessed as growth inhibition after 48 hrs by sulforhodamine B assay; assay type: functional, cell-based; settings: MCF7, 48 h
MDA-MB-231 = assay: Cytotoxicity against human MDA-MB-231 cells assessed as growth inhibition after 48 hrs by sulforhodamine B assay; assay type: functional, cell-based; settings: MDA-MB-231, 48 h

## Cc1nc(Nc2ncc(C(=O)Nc3c(C)cccc3Cl)s2)cc(N2CCN(CCO)CC2)n1 [DASATINIB]
MCF7
  IC50: 8.05 µM
MDA-MB-231
  IC50: 1.12 µM
